# Entries after “also recorded” stand apart in the source; their conditions may differ.
# Key:
# OTC [1] = experiment: siRNA knockdown of JAK/STAT/IRF genes in hepatocytes, OTC mRNA; type: cell-based, human; details: 10 nM siRNA plus 0.03 nM JAK1 siRNA, FIG. 27C
# Text: (§1) To confirm that JAK1 inhibition is necessary for OTC and CPS1 gene expression increase, JAK1, JAK2, and JAK3 expression was knocked down using the siRNA methods previously described in Example 1 (JAK1 siRNA Dharmacon #M-003145-02-0005; JAK2 siRNA Dharmacon #M-003146-02-0005; JAK3 siRNA Dharmacon #M-003147-01-0005). The cells were harvest for mRNA collection and quantification as previously described.
# In addition, STAT5B is a JAK1 signal transducer and transcription factor activated by JAK1. STAT5B was knocked down in hepatocytes using siRNA (Dharmacon cat #M-010539-02-0005) as previously described in Example 1. The cells were harvest for mRNA collection and quantification as previously described.
# (§2) To confirm the role of JAK1 and investigate the role of other signaling proteins and transcription factors in OTC and CPS1 expression, a panel of additional genes were knocked down with siRNA alone or in combination with JAK1. In particular, JAK2 was knockdown alone or in combination with JAK1. The combinations are shown in FIG. 26A and FIG. 26B. siRNA used to knock down JAK1 and JAK2 were: JAK1 siRNA Dharmacon #M-003145-02-0005; JAK2 siRNA Dharmacon #M-003146-02-0005. OTC and CPS1 mRNA expression was normalized to B2M. The assay was performed in triplicate in three donor hepatocyte cell lines: 371, 171, and 511A.
# (§3) Cells were harvested after siRNA treatment for mRNA quantification. JAK1, OTC, and CPS1 mRNA levels were normalized to GUSB.
# CPS1 [2] = experiment: siRNA knockdown of JAK/STAT/IRF genes in hepatocytes, CPS1 mRNA; type: cell-based, human; details: 10 nM siRNA plus 0.03 nM JAK1 siRNA, FIG. 27D
# Text: as §1, §2, §3
# OTC [3] = experiment: HSP90 inhibitor dose titration in hepatocytes of donors A and B, OTC mRNA normalized to B2M; type: cell-based, human; details: 18 hours
# Experimental: (§4) Additional small molecules that inhibit HSP90 or HSP70 were tested in primary human hepatocytes as described in Example 2. HSP90 or HSP70 inhibitors were tested in triplicate at 0.3 μM and 3 μM. The results are shown as the fold change (mRNA FC) in the mRNA levels of OTC and CPS1 genes after treatment compared to an untreated control (DMSO) and the standard deviation (SD). In addition, a dose titration experiment was performed with selected HSP90 inhibitors. Hepatocytes were incubated with increasing concentrations of HSP90 inhibitors and the changes in OTC and CPS1 expression quantified as previously described.
# (§5) Hepatocytes from two different donors (A and B) were incubated with the various concentrations of HSP90 inhibitors for 18 hours and harvested for mRNA analysis. OTC and CPS1 mRNA were normalized to house keeping gene B2M gene expression.
# HSP90 = details: cited from earlier work
# CPS1 [4] = experiment: HSP90 or HSP70 inhibitors in primary human hepatocytes, CPS1 mRNA; type: cell-based; details: hepatocytes from Donor B, normalized to B2M
# Experimental: as §4
# (§6) HSP90 and HSP70 inhibitors were compared to confirm the role of HSP90 in modulating OTC and CPS1 expression. Hepatocytes from Donor B were incubated with various HSP90 inhibitors or an HSP70 inhibitor, Pifithrin-μ, and then harvested for mRNA quantification. OTC and CPS1 mRNA levels were normalized to B2M.
# [5] = test system: chromatin domain upstream of the OTC gene; experiment: ATAC-seq of the OTC insulated neighborhood in inhibitor-treated hepatocytes; details: 17 hours of inhibitor treatment
# ASS1 = experiment: Urea cycle gene expression in Hep3B cells, ASS1; type: cell-based, human; details: FIG. 31B
# OTC [6] = experiment: HSP90 or HSP70 inhibitors in primary human hepatocytes, OTC mRNA; type: cell-based; details: hepatocytes from Donor B, normalized to B2M
# Experimental: as §4, §6
# NAGS = experiment: Urea cycle gene expression in Hep3B cells, NAGS; type: cell-based, human; details: FIG. 31B
# Hep3B cells = experiment: Urea production in Hep3B cells, Blood Urea Nitrogen Assay Kit on spent media; type: cell-based, human; details: increasing concentrations from 0.03 μM
# CPS1 [7] = experiment: HSP90 inhibitor dose titration in hepatocytes of donors A and B, CPS1 mRNA normalized to B2M; type: cell-based, human; details: 18 hours
# Experimental: as §4, §5
# CPS1 [8] = experiment: Urea cycle gene expression in Hep3B cells, CPS1; type: cell-based, human; details: FIG. 31B
# ARG1 = experiment: Urea cycle gene expression in Hep3B cells, ARG1; type: cell-based, human; details: FIG. 31B
# CPS1 [9] = experiment: JAK inhibitors at 0.3 and 3 μM in primary human hepatocytes, CPS1 mRNA fold change; type: cell-based; details: fold change vs DMSO
# Experimental: (§7) Additional small molecules that inhibit JAK1, JAK2, JAK3, or a combination of the JAK proteins were tested in primary human hepatocytes as described in Example 2. JAK inhibitors were tested in triplicate at 0.3 μM and 3 μM. The results are shown as the fold change (mRNA FC) in the mRNA levels of OTC and CPS1 genes after treatment compared to an untreated control (DMSO) and the standard deviation (SD).
# OTC [10] = experiment: JAK inhibitors at 0.3 and 3 μM in primary human hepatocytes, OTC mRNA fold change; type: cell-based; details: fold change vs DMSO
# Experimental: as §7
# Cps1 [11] = experiment: JAK1 inhibitors in C57/B16 mice, liver Cps1 mRNA by qRT-PCR; type: in vivo, mouse; details: i.p. once daily for 4 days, 6 hours after administration, vs control treated mice
# Otc [12] = experiment: JAK1 inhibitors in C57/B16 mice, liver Otc mRNA by qRT-PCR; type: in vivo, mouse; details: i.p. once daily for 4 days, 6 hours after administration, vs control treated mice
# Socs1 = experiment: JAK1 inhibitors in C57/B16 mice, Socs1 mRNA; type: in vivo, mouse; details: i.p. once daily for 4 days
molecule,measurement,setting,value
"IRF9 (DNA AWCGAAACCGAAACY; target site or template, no part of the molecule; chemistry not given here)",OTC expression after knockdown in combination with JAK1,OTC [1],increased
same,CPS1 expression after knockdown in combination with JAK1,CPS1 [2],increased
COc1c(C)cnc(Cn2cnc3c(Cl)nc(N)nc32)c1C [BIIB021],"OTC mRNA FC, Donor A",OTC [3]; 0.03 uM,0.84
same,"OTC mRNA FC, Donor B",OTC [3]; 0.03 uM,1.24
same,"OTC mRNA FC, Donor A",OTC [3]; 0.1 uM,1.13
same,"OTC mRNA FC, Donor B",OTC [3]; 0.1 uM,4.23
same,"OTC mRNA FC, Donor A",OTC [3]; 0.3 uM,2.46
same,"OTC mRNA FC, Donor B",OTC [3]; 0.3 uM,15.30
same,"OTC mRNA FC, Donor A",OTC [3]; 1 uM,5.86
same,"OTC mRNA FC, Donor B",OTC [3]; 1 uM,9.49
same,"OTC mRNA FC, Donor A",OTC [3]; 3 uM,6.12
same,"OTC mRNA FC, Donor B",OTC [3]; 3 uM,6.59
same,"OTC mRNA FC, Donor A",OTC [3]; 10 uM,7.61
same,"OTC mRNA FC, Donor B",OTC [3]; 10 uM,7.17
same,CPS1 Expression mRNA FC,CPS1 [4]; 0.3 uM,0.67
same,CPS1 Expression mRNA FC,CPS1 [4]; 3 uM,2.18
same,accessibility of previously available chromatin upstream of the OTC gene (ATAC-seq),[5],increase in accessibility
same,newly accessible chromatin domain upstream of the OTC gene (ATAC-seq),[5],newly accessible chromatin domain
same,ASS1 expression in Hep3B cells,ASS1,Increases
same,OTC Expression mRNA FC,OTC [6]; 0.3 uM,0.95
same,OTC Expression mRNA FC,OTC [6]; 3 uM,3.12
same,NAGS expression in Hep3B cells,NAGS,Increases
same,urea production,Hep3B cells,dose-dependent increase; also recorded: increases
same,"CPS1 mRNA FC, Donor A",CPS1 [7]; 0.03 uM,0.98
same,"CPS1 mRNA FC, Donor B",CPS1 [7]; 0.03 uM,1.05
same,"CPS1 mRNA FC, Donor A",CPS1 [7]; 0.1 uM,1.40
same,"CPS1 mRNA FC, Donor B",CPS1 [7]; 0.1 uM,1.93
same,"CPS1 mRNA FC, Donor A",CPS1 [7]; 0.3 uM,1.54
same,"CPS1 mRNA FC, Donor B",CPS1 [7]; 0.3 uM,1.95
same,"CPS1 mRNA FC, Donor A",CPS1 [7]; 1 uM,2.75
same,"CPS1 mRNA FC, Donor B",CPS1 [7]; 1 uM,1.37
same,"CPS1 mRNA FC, Donor A",CPS1 [7]; 3 uM,4.27
same,"CPS1 mRNA FC, Donor B",CPS1 [7]; 3 uM,1.13
same,"CPS1 mRNA FC, Donor A",CPS1 [7]; 10 uM,6.41
same,"CPS1 mRNA FC, Donor B",CPS1 [7]; 10 uM,1.83
same,CPS1 expression in Hep3B cells,CPS1 [8],Increases
same,ARG1 expression in Hep3B cells,ARG1,Increases
C[C@@H]1CCN(C(=O)CC#N)C[C@@H]1N(C)c1ncnc2[nH]ccc12 [tofacitinib],CPS1 mRNA FC,CPS1 [9]; 0.3 uM,1.67
same,CPS1 mRNA FC,CPS1 [9]; 3 uM,2.54
same,OTC mRNA FC,OTC [10]; 0.3 uM,3.2
same,OTC mRNA FC,OTC [10]; 3 uM,5.17
same,Cps1 expression in liver,Cps1 [11],increased
same,Otc expression in liver,Otc [12],increase
same,Socs1 mRNA expression,Socs1,decreased
